Entries after “also recorded” stand apart in the source; their conditions may differ.

Series [1] relates to adolescent subjects previously diagnosed with ADHD who also had at least one genetic alteration in an mGluR network gene. The experiment in a line: Open-label Phase 1b clinical trial of NFC-1 in adolescent ADHD subjects with a CNV in an mGluR network gene. The class given is in vivo, human.
The subject of series [2] is dementia-related cognitive impairment. The note with it: Phase I-III trials, dementia-related indications; cited from earlier work.
Series [3] deals with adolescent subjects previously diagnosed with ADHD who also had at least one genetic alteration in an mGluR network gene. Particulars: recently completed precision-medicine-based clinical trial; cited from earlier work.
Series [4] has as its system group I and group II/III mGluRs. The note with it: Hirouchi 2000; cited from earlier work.

Take `O=C1CC[C@H](C(=O)N2CCCCC2)N1` [NFC-1, fasoracetam monohydrate]: the “OCD symptoms during therapy” value in series [1] (eight of the 30 ADHD subjects with symptoms of OCD) is reported as “OCD symptoms improved”. Besides, in series [1] (one subject with OCD and a history of ear scratching), the “dermatillomania symptoms (ear scratching, bleeding ulcer) during therapy” value was “dermatillomania symptoms had reduced”. For the same compound, the “score on Vanderbilt Scale items related to anxiety (nos. 41, 42, and 47)” value in series [1] (week 5, two subjects, all 3 items, at enrollment maximum score of 3 on 2 of the 3 items) was 3. Moreover, the “total "never" score for all BRIEF anxiety/mood questions for all subjects” value in series [1] (week 5 of dose escalation (50-400 mg bid), all 30 subjects, score at enrollment was 125) was determined as 191. Moreover, the “total "often" score for all BRIEF anxiety/mood questions for all subjects” value in series [1] (week 5 of dose escalation (50-400 mg bid), all 30 subjects, score at enrollment was 154) is 77. Moreover, the safety and tolerability entry in series [2] was “generally safe and well tolerated”.

Regarding `O=C1CC[C@H](C(=O)N2CCCCC2)N1` [fasoracetam], the “treatment of ADHD in subjects having a genetic alteration in an mGluR network gene” value in series [3] is on record as “successfully treated”. Moreover, the “activation of mGluRs in vitro” value in series [4] was “nonselective activator against all classes of mGluRs; also recorded: can stimulate both group I and group II/III mGluRs”.
